According to publication PMC12017303 (Science Advances, 2025):

Experiments:
SARS-CoV-2 Beta variant = settings: mouse, in vivo
[1] = tested on: SARS-CoV-2 variants WA1, XBB.1.5, XBB.1.16, and EG.5.1; experiment: microbe, parasite or virus in culture; assay type: cell-based; settings: Severe acute respiratory syndrome coronavirus 2, read-out: EC50 range against all viruses tested

| SMILES | IC50 for decrease in lung virus replication (SARS-CoV-2 Beta variant) [mg/kg] | SARS-CoV-2 N protein in lung (immunohistochemistry) (SARS-CoV-2 Beta variant) | mononuclear cell infiltration and respiratory epithelial cell injury in lung (SARS-CoV-2 Beta variant) | reduction in viral load compared to the ensitrelvir-treated arm (SARS-CoV-2 Beta variant) [log] | reduction in viral load compared to vehicle-treated animals (SARS-CoV-2 Beta variant) | reduction in viral titers (SARS-CoV-2 Beta variant) | viral titers after three doses, result in words (SARS-CoV-2 Beta variant) | reduction in virus replication compared to the vehicle (plaque assay) (SARS-CoV-2 Beta variant) [log] | EC50 [1] [nM] |
| --- | --- | --- | --- | --- | --- | --- | --- | --- | --- |
| C#CCn1c(C)c(-n2nnc3ccccc32)c(=O)n(-c2cncc3ccccc23)c1=O [AVI-4516] | 14.7 | minimal or no viral protein present | notably absent | – | – | – | – | – | – |
| C#CCn1c(C)c(-n2nnc3cc(F)c(F)cc32)c(=O)n(-c2cncc3ccccc23)c1=O [AVI-4773] | – | – | – | > 3 | ~ 6 log | > 1,000,000 | below detectable levels | – | – |
| CC(C)(C)[C@H](NC(=O)C(F)(F)F)C(=O)N1C[C@H]2[C@@H]([C@H]1C(=O)N[C@H](C#N)C[C@@H]1CCNC1=O)C2(C)C [nirmatrelvir, reference compound] | – | minimal or no viral protein present | – | – | – | – | – | 2 | 21 to 67 |
